Results published in US11254640B2, “N-substituted indoles and other heterocycles for treating brain disorders” (The Regents of the University of California, priority 2019, dated 2022).
“Also recorded” adds a separate entry of the source. Read-outs that look alike come from different tables or passages of the source.

Columns and labels:
[1] = target: T1, 5HT2A (Homo sapiens, UniProt P28223); assay: Calcium flux assay (Calcium secondary messenger pathway); type: cell-based; conditions: agonist mode
T1 construct: expressed in transfected cells
T1 sequence (P28223 whole entry): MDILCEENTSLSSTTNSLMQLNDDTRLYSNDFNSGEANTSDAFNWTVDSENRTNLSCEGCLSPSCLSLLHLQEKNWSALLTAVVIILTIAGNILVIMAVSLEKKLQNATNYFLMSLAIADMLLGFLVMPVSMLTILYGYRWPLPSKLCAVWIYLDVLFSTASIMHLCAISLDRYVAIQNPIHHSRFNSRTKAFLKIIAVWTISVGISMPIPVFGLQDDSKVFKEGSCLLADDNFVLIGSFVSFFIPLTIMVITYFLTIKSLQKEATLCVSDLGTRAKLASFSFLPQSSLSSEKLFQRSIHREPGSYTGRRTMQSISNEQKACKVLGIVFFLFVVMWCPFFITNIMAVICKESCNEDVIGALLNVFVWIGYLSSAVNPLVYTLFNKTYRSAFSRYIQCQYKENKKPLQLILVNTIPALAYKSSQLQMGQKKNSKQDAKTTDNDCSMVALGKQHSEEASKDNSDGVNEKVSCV
Summary of the method: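 Gq-coupled calcium mobilization in cells stably expressing 5HT2A, loaded 30–60 min at 37 °C with calcium-sensitive dye in HBSS/20 mM Hepes with 2.5 mM probenecid. Compound added 5 s into a 2-min FLIPR Tetra fluorescence read at room temperature; % activity relative to vehicle and maximal control-ligand RFU.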

[2] = system: C57BL/6J mice; assay: Head twitch response (HTR) assay; type: in vivo, mouse; conditions: intraperitoneal injection, head-twitches over 20 mins (FIG. 8, FIG. 9)
Text: Animals. For the dendritogenesis experiments, timed pregnant Sprague Dawley rats were obtained from Charles River Laboratories (Wilmington, Mass.). For the head-twitch response assay, male and female C57BL/6J mice were obtained from Jackson Laboratory (Sacramento, Calif.). Mice were housed in a temperature and humidity-controlled room maintained on a 12-h light/dark cycle in groups of 4-5 (same sex). Animals weighed between 17 and 30 g at the time of the experiments. All experimental procedures involving rodents were approved by the UC Davis Institutional Animal Care and Use Committee (IACUC) and adhered to principles described in the National Institutes of Health Guide for the Care and Use of Laboratory Animals. The University of California, Davis and the University of California, San Francisco are accredited by the Association for Assessment and Accreditation of Laboratory Animal Care International (AAALAC).
Head twitch response experiments. Mice (9-10 weeks old) were injected intraperitoneally with compound (injection volume 5 ml/kg), placed in an empty cage, and filmed for 20 minutes. Cages were cleaned with 70% ethanol between experiments.

[3] = system: rats; conditions: rats trained to discriminate DOM from saline, cited from earlier work
[4] = system: cortical neurons; assay: Dendritogenesis assay, Sholl analysis; type: cell-based, rat; conditions: for Emax at 10 µM: Rattus norvegicus, Cortical neurone, Nmax with vehicle (DMSO) = 0% and ketamine = 100%, read-out: % efficacy in sholls; for psychoplastogenic efficacy and potency, concentration-response (Nmax): concentrations ranging from 10 μM to 10 pM (FIG. 6)
Summary of the method: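 Rat cortical neurons (timed-pregnant Sprague Dawley) were treated at DIV3 with compound at 10 μM unless noted (0.1% DMSO) for 1 h, washed out, grown 71 h more. Fixed, MAP2-immunostained, imaged; Sholl Nmax, with % efficacy scaled to DMSO (0%) and ketamine (100%).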

## COc1ccc2ccn(CCN(C)C)c2c1 [Example 5, 2-(6-methoxy-1H-indol-1-yl)-N,N-dimethylethan-1-amine]
[1]
  EC50: < 10 µM
[2]
  head-twitch response (hallucinogenic potential): significantly less potent
[3]
  substitution for hallucinogenic training drug (DOM) in drug discrimination: substitutes
[4]; 10 μM
  Emax at 10 µM: 95%
[4]
  psychoplastogenic efficacy and potency, concentration-response (Nmax): comparable maximum efficacies and had similar potencies as isosteric DMTs (1 and 28)
[4]; cortical neurons, 10 μM
  dendritic arbor complexity / neuronal growth (Nmax of Sholl plots): performed identically to 28 and 29

## COc1cccc2ccn(CCN(C)C)c12.O=C(O)/C=C/C(=O)O [Example 6, 2-(7-methoxy-1H-indol-1-yl)-N,N-dimethylethan-1-amine]
[1]
  EC50: < 10 µM
other
  melting point: 120 to 123 °C
[4]; 10 μM
  Emax at 10 µM: 92%

## COc1ccc2c(ccn2CCN(C)C)c1.O=C(O)/C=C/C(=O)O [Example 4, 2-(5-methoxy-1H-indol-1-yl)-N,N-dimethylethan-1-amine]
[1]
  EC50: > 10 µM
[2]
  head-twitch response (hallucinogenic potential): low hallucinogenic potential; also recorded: did not produce any HTR
other
  melting point: 140 to 142 °C
[3]
  substitution for hallucinogenic training drug (DOM) in drug discrimination: low hallucinogenic potential
[3]; listed as 5-MeO-isoDMT
  substitution for hallucinogenic training drug (DOM) in drug discrimination: does not
[4]; 10 μM
  Emax at 10 µM: 65%
[4]
  psychoplastogenic efficacy and potency, concentration-response (Nmax): exceptional psychoplastogen

## C[C@H](Cn1ccc2cc(F)ccc21)N(C)C [Example 60, (R)-1-(5-fluoro-1H-indol-1-yl)-N,N-dimethylpropan-2-amine]
[1]
  EC50: > 10 µM
[2]
  head-twitch response (hallucinogenic potential): did not produce any HTR

## COc1ccc2c(ccn2C[C@@H](C)N(C)C)c1 [Example 59, (R)-1-(5-methoxy-1H-indol-1-yl)-N,N-dimethylpropan-2-amine]
[1]
  EC50: > 10 µM
[2]
  head-twitch response (hallucinogenic potential): did not produce any HTR

## COc1cccc2c1ccn2CCN(C)C.O=C(O)/C=C/C(=O)O [Example 3, 2-(4-methoxy-1H-indol-1-yl)-N,N-dimethylethan-1-amine]
[1]
  EC50: > 10 µM
other
  melting point: 140 to 145 °C
[4]; 10 μM
  Emax at 10 µM: 26%
